# Values of other authors, collected in patent US7267830B2, “Composition and methods for inhibiting the progression macular degeneration and promoting healthy vision” (Alcon, Inc., priority 2003, dated 2007).
# Like-named read-outs stand apart in the source and are kept apart here.
# Legend:
# [1] = tested on: macular degeneration changes; conditions: zinc supplement, Newsome 1988
smiles,measurement,setting,value
[Zn] [Zinc],retarding macular degeneration changes versus placebo,[1],significantly better than placebo
same,tolerability,100 mg zinc a day (Wagner 1985),well tolerated without difficulty
same,tolerability,150 mg of zinc a day (Wagner 1985),well tolerated without difficulty
same,tolerability,about 200 mg of zinc per day,well-tolerated
same,potential side effects,about 200 mg of zinc per day (Fischer 1983),blocking copper absorption
